ChEMBL document CHEMBL5316263, “Structure-Based Discovery of Selective Histone Deacetylase 8 Degraders with Potent Anticancer Activity” (J Med Chem, 2023)
The source made the active and inactive calls. The rule behind the calls is not given here.

Assays:
A549 [1] = assay: Synergistic antiproliferative activity against human A549 cells assessed as combination index measured after 72 hrs under irradiation by CCK-8 method; assay type: functional
A549 [2] = assay: Inhibition of colony formation in SiRNA mediated HDAC8 knockdown human A549 cells assessed as decrease in cell proliferation at 2.5 to 10 uM measured after 7 to 10 days with media replenishment along with compound for every 3 days by crystal violet staining based analysis; assay type: functional; conditions: dose 2.5-10 µM, time 7-10 day
A549 [3] = assay: Effect on TIPARP gene in human A549 cells at 10 uM measured after 20 hrs by RNA sequencing analysis; assay type: functional, cell-based
A549 [4] = assay: Effect on NPTX1 gene in human A549 cells at 10 uM measured after 20 hrs by RNA sequencing analysis; assay type: functional, cell-based
[5] = target: T1, Histone deacetylase 8 (Homo sapiens) (UniProt Q9BY41); assay: Induction of degradation in HDAC8 in human A549 cells incubated for 20 hrs by proteomic analysis; assay type: cell-based
T1 sequence (whole entry): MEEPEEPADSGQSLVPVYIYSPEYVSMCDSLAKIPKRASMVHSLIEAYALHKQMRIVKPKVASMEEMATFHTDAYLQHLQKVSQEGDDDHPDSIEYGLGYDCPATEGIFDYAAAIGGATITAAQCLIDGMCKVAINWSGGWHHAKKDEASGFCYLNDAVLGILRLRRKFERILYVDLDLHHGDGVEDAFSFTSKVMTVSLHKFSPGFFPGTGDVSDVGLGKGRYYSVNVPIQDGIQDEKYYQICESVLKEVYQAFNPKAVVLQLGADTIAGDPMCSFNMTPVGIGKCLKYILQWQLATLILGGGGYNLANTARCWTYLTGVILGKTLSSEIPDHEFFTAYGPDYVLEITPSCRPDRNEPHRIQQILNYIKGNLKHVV

A549 [6] = assay: Downregulation of LAMTOR4 in human A549 cells measured after 20 hrs by proteomic analysis; assay type: functional, cell-based
A549 [7] = assay: Downregulation of ABHD6 in human A549 cells measured after 20 hrs by proteomic analysis; assay type: functional, cell-based
A549 [8] = assay: Induction of apoptosis in human A549 cells assessed as viable cells at 1.25 uM incubated for 72 hrs by annexin V-FITC staining based flow cytometry (reference value: 99.9%); assay type: functional; conditions: read-out: Activity
A549 [9] = assay: Induction of apoptosis in human A549 cells assessed as viable cells at 10 uM incubated for 72 hrs by annexin V-FITC staining based flow cytometry (reference value: 99.9%); assay type: functional; conditions: read-out: Activity
A549 [10] = assay: Induction of apoptosis in human A549 cells assessed as viable cells at 20 uM incubated for 72 hrs by annexin V-FITC staining based flow cytometry (reference value: 99.9%); assay type: functional; conditions: read-out: Activity
A549 [11] = assay: Induction of apoptosis in human A549 cells assessed as early apoptotic cells at 10 uM incubated for 72 hrs by annexin V-FITC staining based flow cytometry (reference value: 0.099%); assay type: functional
A549 [12] = assay: Induction of apoptosis in human A549 cells assessed as late apoptotic cells at 5 uM incubated for 72 hrs by annexin V-FITC staining based flow cytometry (reference value: 0.048%); assay type: functional
A549 [13] = assay: Induction of apoptosis in human A549 cells assessed as necrotic cells at 1.25 uM incubated for 72 hrs by annexin V-FITC staining based flow cytometry relative to control; assay type: functional
A549 [14] = assay: Induction of apoptosis in human A549 cells assessed as late apoptotic cells at 10 uM incubated for 72 hrs by annexin V-FITC staining based flow cytometry (reference value: 0.048%); assay type: functional
A549 [15] = assay: Induction of apoptosis in human A549 cells assessed as necrotic cells at 2.5 uM incubated for 72 hrs by annexin V-FITC staining based flow cytometry relative to control; assay type: functional
A549 [16] = assay: Induction of apoptosis in human A549 cells assessed as necrotic cells at 10 uM incubated for 72 hrs by annexin V-FITC staining based flow cytometry relative to control; assay type: functional
A549 [17] = assay: Induction of apoptosis in human A549 cells assessed as viable cells at 5 uM by annexin V-FITC staining based flow cytometry (reference value: 100%); assay type: functional; conditions: read-out: Activity
A549 [18] = assay: Induction of apoptosis in human A549 cells assessed as early apoptotic cells at 5 uM by annexin V-FITC staining based flow cytometry (reference value: 0%); assay type: functional
A549 [19] = assay: Induction of apoptosis in human A549 cells assessed as viable cells at 5 uM incubated with compound followed by irradiation by annexin V-FITC staining based flow cytometry (reference value: 89.7%); assay type: functional; conditions: A549, light or radiation study, read-out: Activity
A549 [20] = assay: Induction of apoptosis in human A549 cells assessed as late apoptotic cells at 5 uM incubated with compound followed by irradiation by annexin V-FITC staining based flow cytometry (reference value: 3.07%); assay type: functional
HCT-116 = assay: Induction of apoptosis in human HCT-116 cells assessed as necrotic cells at 5 uM incubated for 48 hrs by annexin V FITC and propidium iodide based flow cytometry relative to control; assay type: functional
[21] = target: T2, Protein cereblon/Histone deacetylase 8 (Homo sapiens) (UniProt Q9BY41+Q96SW2); assay: Protac activity at CRBN/HDAC8 in human A549 cells assessed as reduction in HDAC8 protein level by Western blot analysis; assay type: cell-based; conditions: dose 0.2-10 µM
T2 sequence (Q96SW2 whole entry, looked up, one chain of several): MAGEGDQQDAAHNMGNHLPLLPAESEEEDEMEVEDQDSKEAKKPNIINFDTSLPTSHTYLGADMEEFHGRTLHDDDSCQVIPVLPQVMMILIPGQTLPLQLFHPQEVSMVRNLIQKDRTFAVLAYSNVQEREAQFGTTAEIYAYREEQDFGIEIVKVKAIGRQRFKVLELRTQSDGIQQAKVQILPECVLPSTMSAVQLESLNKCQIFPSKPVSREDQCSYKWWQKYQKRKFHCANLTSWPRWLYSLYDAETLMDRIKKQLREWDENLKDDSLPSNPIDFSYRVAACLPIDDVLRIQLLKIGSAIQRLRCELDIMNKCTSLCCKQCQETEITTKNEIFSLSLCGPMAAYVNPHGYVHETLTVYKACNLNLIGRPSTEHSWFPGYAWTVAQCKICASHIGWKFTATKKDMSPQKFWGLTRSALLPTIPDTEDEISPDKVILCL

[22] = target: Protein cereblon/Histone deacetylase 2 (Homo sapiens) (UniProt Q92769+Q96SW2); assay: Protac activity at CRBN/HDAC2 in human A549 cells assessed as reduction in HDAC2 protein level at 0.1 to 10 uM by Western blot analysis; assay type: cell-based; conditions: dose 0.1-10 µM
Protein cereblon/Histone deacetylase 2 (Homo sapiens), sequence (Q92769 whole entry, looked up): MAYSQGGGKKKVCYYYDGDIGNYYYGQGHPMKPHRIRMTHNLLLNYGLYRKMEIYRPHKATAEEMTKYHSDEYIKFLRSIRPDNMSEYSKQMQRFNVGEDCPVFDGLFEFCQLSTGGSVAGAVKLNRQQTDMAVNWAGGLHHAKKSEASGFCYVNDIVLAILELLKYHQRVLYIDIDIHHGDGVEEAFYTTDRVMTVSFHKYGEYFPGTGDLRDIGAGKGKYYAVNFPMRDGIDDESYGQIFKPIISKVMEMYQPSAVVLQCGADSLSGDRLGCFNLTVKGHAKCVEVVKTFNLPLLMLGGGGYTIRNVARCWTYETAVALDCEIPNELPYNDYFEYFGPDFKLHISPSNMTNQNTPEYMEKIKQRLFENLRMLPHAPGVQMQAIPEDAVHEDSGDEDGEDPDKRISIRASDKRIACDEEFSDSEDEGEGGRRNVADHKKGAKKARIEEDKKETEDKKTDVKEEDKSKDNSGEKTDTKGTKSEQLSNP
Protein cereblon/Histone deacetylase 2 (Homo sapiens), sequence (Q96SW2 whole entry, looked up): as the sequence (Q96SW2 whole entry, looked up, one chain of several) above

[23] = target: Protein cereblon/Histone deacetylase 3 (Homo sapiens) (UniProt O15379+Q96SW2); assay: Protac activity at CRBN/HDAC3 in human A549 cells assessed as reduction in HDAC3 protein level at 0.1 to 10 uM by Western blot analysis; assay type: cell-based; conditions: dose 0.1-10 µM
Protein cereblon/Histone deacetylase 3 (Homo sapiens), sequence (O15379 whole entry, looked up): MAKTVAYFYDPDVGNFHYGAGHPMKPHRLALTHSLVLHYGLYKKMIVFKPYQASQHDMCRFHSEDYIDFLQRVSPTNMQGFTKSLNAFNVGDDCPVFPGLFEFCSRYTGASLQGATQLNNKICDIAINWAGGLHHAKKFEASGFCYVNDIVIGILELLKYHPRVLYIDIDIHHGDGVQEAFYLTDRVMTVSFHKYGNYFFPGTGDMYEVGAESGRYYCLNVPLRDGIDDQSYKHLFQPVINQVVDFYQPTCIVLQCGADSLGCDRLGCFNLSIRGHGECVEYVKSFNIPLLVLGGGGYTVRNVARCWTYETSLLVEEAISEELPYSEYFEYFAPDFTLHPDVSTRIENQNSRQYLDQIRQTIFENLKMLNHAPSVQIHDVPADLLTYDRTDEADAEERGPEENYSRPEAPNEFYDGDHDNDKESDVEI
Protein cereblon/Histone deacetylase 3 (Homo sapiens), sequence (Q96SW2 whole entry, looked up): as the sequence (Q96SW2 whole entry, looked up, one chain of several) above

[24] = target: Protein cereblon/Protein deacetylase HDAC6 (Homo sapiens) (UniProt Q9UBN7+Q96SW2); assay: Protac activity at CRBN/HDAC6 in human A549 cells assessed as reduction in HDAC6 protein level at 0.1 to 10 uM by Western blot analysis; assay type: cell-based; conditions: dose 0.1-10 µM
Protein cereblon/Protein deacetylase HDAC6 (Homo sapiens), sequence (Q96SW2 whole entry, looked up): as the sequence (Q96SW2 whole entry, looked up, one chain of several) above
Protein cereblon/Protein deacetylase HDAC6 (Homo sapiens), sequence (Q9UBN7 whole entry, looked up): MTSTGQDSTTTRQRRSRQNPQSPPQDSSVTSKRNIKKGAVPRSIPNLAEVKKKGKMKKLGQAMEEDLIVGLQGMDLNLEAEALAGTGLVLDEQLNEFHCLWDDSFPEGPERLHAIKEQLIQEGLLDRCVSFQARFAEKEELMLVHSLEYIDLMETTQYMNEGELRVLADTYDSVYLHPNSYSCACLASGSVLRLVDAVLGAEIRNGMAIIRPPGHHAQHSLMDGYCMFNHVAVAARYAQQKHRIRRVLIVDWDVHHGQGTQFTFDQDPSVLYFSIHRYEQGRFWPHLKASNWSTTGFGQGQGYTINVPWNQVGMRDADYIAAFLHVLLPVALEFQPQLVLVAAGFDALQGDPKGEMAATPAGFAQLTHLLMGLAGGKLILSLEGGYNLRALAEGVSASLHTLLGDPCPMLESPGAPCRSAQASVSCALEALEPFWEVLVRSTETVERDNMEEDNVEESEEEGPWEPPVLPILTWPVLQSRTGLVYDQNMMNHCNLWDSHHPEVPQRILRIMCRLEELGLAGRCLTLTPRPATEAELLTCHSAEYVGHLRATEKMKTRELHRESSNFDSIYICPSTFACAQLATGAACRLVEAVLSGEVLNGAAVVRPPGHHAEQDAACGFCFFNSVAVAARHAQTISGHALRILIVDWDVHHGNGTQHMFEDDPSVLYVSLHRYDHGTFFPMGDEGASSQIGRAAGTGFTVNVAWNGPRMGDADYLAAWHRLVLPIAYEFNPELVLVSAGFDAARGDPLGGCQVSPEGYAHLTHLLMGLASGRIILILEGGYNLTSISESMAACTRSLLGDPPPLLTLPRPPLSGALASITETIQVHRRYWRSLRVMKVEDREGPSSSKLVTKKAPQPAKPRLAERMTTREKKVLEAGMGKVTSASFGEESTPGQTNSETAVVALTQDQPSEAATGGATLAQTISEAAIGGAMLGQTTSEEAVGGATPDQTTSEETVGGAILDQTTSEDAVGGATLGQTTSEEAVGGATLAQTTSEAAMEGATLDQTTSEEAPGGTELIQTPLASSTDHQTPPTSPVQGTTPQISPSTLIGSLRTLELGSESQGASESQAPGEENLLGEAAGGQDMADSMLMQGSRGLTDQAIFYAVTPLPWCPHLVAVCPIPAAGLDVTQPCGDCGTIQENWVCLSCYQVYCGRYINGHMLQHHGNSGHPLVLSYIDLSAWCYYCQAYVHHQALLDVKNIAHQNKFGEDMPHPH

[25] = target: T2, Protein cereblon/Histone deacetylase 8 (Homo sapiens); assay: Protac activity at CRBN/HDAC8 in human HeLa cells assessed as reduction in HDAC8 protein level at 0.1 to 10 uM by Western blot analysis; assay type: cell-based; conditions: dose 0.1-10 µM
[26] = target: Protein cereblon/Histone deacetylase 9 (Homo sapiens) (UniProt Q9UKV0+Q96SW2); assay: Protac activity at CRBN/HDAC9 in human A549 cells assessed as degradation of HDAC9 at 0.1 to 10 uM by Western blot analysis; assay type: cell-based; conditions: dose 0.1-10 µM
Protein cereblon/Histone deacetylase 9 (Homo sapiens), sequence (Q96SW2 whole entry, looked up): as the sequence (Q96SW2 whole entry, looked up, one chain of several) above
Protein cereblon/Histone deacetylase 9 (Homo sapiens), sequence (Q9UKV0 whole entry, looked up): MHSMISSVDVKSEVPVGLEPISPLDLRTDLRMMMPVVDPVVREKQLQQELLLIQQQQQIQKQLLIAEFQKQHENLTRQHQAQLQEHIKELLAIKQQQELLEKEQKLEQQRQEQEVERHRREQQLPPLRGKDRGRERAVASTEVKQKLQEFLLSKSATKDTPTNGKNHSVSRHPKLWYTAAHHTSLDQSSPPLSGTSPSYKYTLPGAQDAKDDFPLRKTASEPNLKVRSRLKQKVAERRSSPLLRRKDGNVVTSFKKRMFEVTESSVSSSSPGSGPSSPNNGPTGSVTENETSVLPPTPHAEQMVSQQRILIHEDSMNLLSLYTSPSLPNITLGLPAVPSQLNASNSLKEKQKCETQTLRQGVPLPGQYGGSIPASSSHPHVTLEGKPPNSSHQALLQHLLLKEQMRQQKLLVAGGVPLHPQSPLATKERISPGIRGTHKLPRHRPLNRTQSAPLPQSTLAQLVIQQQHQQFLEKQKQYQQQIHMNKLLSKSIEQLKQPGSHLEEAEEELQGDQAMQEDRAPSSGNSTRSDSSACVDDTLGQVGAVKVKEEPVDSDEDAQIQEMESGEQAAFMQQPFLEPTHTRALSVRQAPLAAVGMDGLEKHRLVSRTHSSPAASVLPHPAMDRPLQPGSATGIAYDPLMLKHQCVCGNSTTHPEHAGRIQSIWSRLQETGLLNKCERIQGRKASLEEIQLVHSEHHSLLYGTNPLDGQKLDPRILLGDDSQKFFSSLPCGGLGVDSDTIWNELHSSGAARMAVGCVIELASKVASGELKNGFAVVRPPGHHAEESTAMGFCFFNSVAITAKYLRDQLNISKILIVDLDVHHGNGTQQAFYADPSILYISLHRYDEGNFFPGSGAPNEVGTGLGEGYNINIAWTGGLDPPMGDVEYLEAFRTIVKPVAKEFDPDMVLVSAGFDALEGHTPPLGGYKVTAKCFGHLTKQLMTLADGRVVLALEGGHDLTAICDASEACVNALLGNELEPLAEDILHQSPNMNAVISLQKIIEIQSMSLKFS

[27] = target: T2, Protein cereblon/Histone deacetylase 8 (Homo sapiens); assay: Protac activity at CRBN/HDAC8 in human A549 cells assessed as reduction in HDAC8 protein levels at 10 uM measured after 18 hrs by Western blot analysis relative to control; assay type: cell-based; parameters: scale not given: the % may be the effect or the level left
[28] = target: T2, Protein cereblon/Histone deacetylase 8 (Homo sapiens); assay: Protac activity at CRBN/HDAC8 in human MDA-MB-231 cells assessed as decrease in SMAD3 protein level at 0.1 to 10 uM by Western blot analysis; assay type: cell-based; conditions: dose 0.1-10 µM
A549 [29] = assay: Antitumor activity against human A549 cells xenografted in NOD/SCID mouse assessed as increase in number of necrotic cells at 5 mg/kg, ip administered every 5 days measured at day 30 under irradiation condition by H and E staining based analysis; assay type: functional, organism-based; conditions: time 30.0 day

O=C1CCC(N2C(=O)c3cccc(NCc4cn(CCOCCOc5ccc(Cn6ccc7ccc(C(=O)NO)cc76)cc5)nn4)c3C2=O)C(=O)N1 (stereo not given)
CI (A549 [1]): 0.65 | inhibition (A549 [2]): Active | Activity (A549 [3]): Active | Activity (A549 [4]): Active | Activity [5]: Active | Activity (A549 [6]): Active | Activity (A549 [7]): Active | viability at 1.25 µM (A549 [8]): 68.2% | viability at 10 µM (A549 [9]): 42.7% | viability at 20 µM (A549 [10]): 6.84% | Activity (A549 [11]): 23.5% | Activity (A549 [12]): 21.8% | Activity (A549 [13]): 0.1% | Activity (A549 [14]): 22.2% | Activity (A549 [15]): 0.57% | Activity (A549 [16]): 1.52% | viability at 5 µM (A549 [17]): 77% | Activity (A549 [18]): 15.4% | viability at 5 µM (A549 [19]): 66.3% | Activity (A549 [20]): 0.3% | Activity (HCT-116): 10% | Activity [21]: Dose-Dependent Effect | Activity [22]: inactive | Activity [23]: inactive | Activity [24]: inactive | Activity [25]: Active | Activity [26]: inactive | Activity [27]: 100% | Activity [28]: Active | Activity (A549 [29]): Active
